Source: patent US20020065213A1, “METHODS AND COMPOSITIONS FOR NONVIRAL GENE DELIVERY” (priority 1998, published 2002)

Experiments:
ICR female mice = test: Pretreatment of mice before intravenous CLDC (p4241): luciferase, Southern analysis, rhodamine-lipid; format: in vivo, mouse
Procedure: In vivo transfections. Each mouse received 50 μg p4241 complexed to DOTIM:cholesterol MLV containing 1 mole % rhodamine-PE at a ratio of 1:16 (μg DNA per nmole total lipid). Approximately 25 g ICR female mice (Simonson, Gilroy, Calif.) received 200 μl of CLDC intravenously by tail vein injection. Pretreatments of mice were also by intravenous tail vein injections. Fucoidan, dissolved in phosphate buffered saline (PBS), was pre-injected at a dosage of 500 μg per mouse 0, 1, 2, 10, 24, or 48 hrs prior to CLDC injection. Heparinase I and III (Sigma) were dissolved in 0.15 M sodium chloride at a concentration of 75 units per 100 μl, and 100 μl per mouse were injected 15 minutes prior to injection of CLDC. Control mice were preinjected at appropriate times with either PBS or 0.15 M sodium chloride. As an additional control, heparinase I was boiled for 10 minutes to denature and deactivate the enzyme prior to pre-injection. Mice were harvested 24 hours post-CLDC injection, and pieces of lung, liver, heart, and spleen were placed in 1X lysis buffer (Promega, Madison, Wis.) on ice for luciferase assays (Liu et al., 1997). Samples of liver and lung were frozen on dry ice prior to Bligh Dyer extractions for rhodamine-liposome fluorescence analysis and isolation of DNA for Southern analysis as described (Liu et al., 1997).

murine B 16 cells = test: Inhibition of in vitro CLDC-mediated transfection (luciferase) by polysaccharide pretreatment
ICR mice = test: Host pretreatment before i.v. CLDC or naked DNA, tissue luciferase activity; format: in vivo, mouse
Procedure: Plasmid: p4241 (HCMV-luciferase, see Liu et al., 1997).
Liposomes: DOTIM:chol MLV in 1:1 molar ratio.
DNA:Liposome Ratio: liposome:plasmid 1:16 (μg plasmid DNA to nanomoles total lipid).
Pretreatment: Individual mice in groups of 5 received either 200 μl of D5W only by IV injection, 1 mg dexamethasone (Sigma) in 200 μl D5W by IV tail vein injection, 250 μg Ticlopidine (Sigma) dissolved in 200 μl D5W by IV injection, 175 μg ammonium chloride (Fisher) dissolved in 1000 μl D5W by IP injection, respectively, four hours before IV injection of CLDC. For 4-APP pretreatment, a group of 5 mice were IP injected with 1.5 mg of 4-Aminopyrazolo(3,4d)-pyrimidine (Sigma, A2630) dissolved in 1 ml 0.01 M sodium phosphate, pH 2.5, daily for three days before receiving an IV injection of p4241-containing CLDC as described above. Another group of 5 mice received 1 ml 0.01 M Sodium Phosphate, pH 2.5 solution by IP injection daily for three days before receiving an injection of IV CLDC as above, thus serving as control for 4-APP pretreatment group.
DNA dose: 40 μg plasmid DNA in 200 μl of 5% dextrose in water (D5@) was injected by tail vein per mouse.
Animals: ICR mice:female, 25 grams (Simonsen Labs, Gilroy, Calif.).
Quantitation of luciferase: Twenty-four hours after injection of CLDC, mice were sacrificed in a CO2 chamber, and lungs, heart, spleen and liver were collected and assayed for luciferase activity. Relative light units were converted to luciferase activity, and an unpaired, two side Student's t test applied for statistical analysis of potential differences between groups as described previously (Liu et al., 1997).
In another experiment, the effect of pretreatment on subsequent expression of the same plasmids delivered as naked DNA was examined. Pretreated animals were injected with 6.25 mg of mannitol (Sigma, MO) in 200 microliters of water 2 hours or 24 hours prior to iv administration of the p4241 luciferase vector as naked DNA in water, 50% glycerol or D5W. Control animals received water alone as a pretreatment. […]

B16 cells, PPC-1 cells = test: Effect on calcium phosphate, adenoviral and electroporation transfection in vitro; format: cell-based
Procedure: B16 cells were electroporated with p4241 as per BioRad (Hercules, Calif.) instructions for the GenePulser II. Calcium phosphate transfections were performed as described in the manufacturer's instructions (Gibco BRL, Grand Island, N.Y.). Adenoviral infection of PPC-1 cells was performed as previously described (Graham and […], 1991).

B16 cells = test: DNA uptake by cells after CLDC transfection (luciferase, Southern analysis of nuclear and total DNA); format: cell-based, mouse
Procedure: Southern analysis. Isolation of total DNA from mouse tissues was performed as described (Liu et al., 1997). Approximately 2×10^6 B16 cells were cultured in 100 mm dishes for each DNA extraction from cultured cells. Two hundred nanograms of DNA per lane were fractionated on 1% agarose/1X TAE gels overnight. Blotting onto Hybond membrane (Amersham, Arlington Heights, Ill.), prehybridization, hybridization, and washes were performed as described (Sambrook et al., 1989). A 1.2 kb HindIII/EcoRV gel-purified fragment of luciferase from p4241 was radioactively labelled using the Random Primed DNA Labeling Kit (Boehringer Mannheim, Indianapolis, Ind.). Nuclei were isolated from 2×10^6 B16 cells as described (Sambrook et al., 1989), and lysed in NP40 lysis buffer (10 mM Tris, pH 7.4, 10 mM sodium chloride, 3 mM magnesium chloride, and 0.5% nonidet P-40). Nuclear DNA was then isolated from washed nuclei using the same technique as for total DNA isolation (Sambrook et al., 1989).
Fucoidan inhibited CLDC-mediated transfection in vitro by blocking DNA uptake by cells. Nuclei were isolated from cells untreated or pretreated with fucoidan and subsequently transfected with CLDC, and nuclear DNA was assayed for the presence of the luciferase plasmid used in making the complex. The nuclei of cells untreated with fucoidan contained luciferase plasmid, as expected from the high levels of luciferase activity observed in untreated cells. Therefore, DNA did traverse the cell membranes of untreated cells.

[1] = iv 15 minutes before CLDC injection
[2] = cells pretreated for 30 minutes with 1 μM

heparinase I
reporter plasmid DNA in lungs, fold less than control lungs (Southern analysis) (ICR female mice; [1]): 2 fold | rhodamine labelled lipid recovered from lungs (ICR female mice; [1]): significantly decreased the levels of rhodamine labelled lipid | transfection efficiency of CLDC (luciferase) in lungs, hearts and spleens (ICR female mice; [1]): significantly decreased

dextran
CLDC transfection at high concentrations (murine B 16 cells): significant elevation of transfection | CLDC transfection in vitro after pretreatment of cells (murine B 16 cells): failed to inhibit transfection

dextran sulfate
CLDC transfection in vitro after pretreatment of cells (murine B 16 cells): largely blocked | concentration sufficient to block transfection (murine B 16 cells; murine B 16 cells): 10 nM

heparin
CLDC-mediated gene transfer following intravenous injection of CLDC into mice (ICR female mice; mouse, in vivo, iv): abolished CLDC-mediated gene transfer | CLDC transfection in vitro after pretreatment of cells (murine B 16 cells): largely blocked

OC[C@@H](O)[C@@H](O)[C@H](O)[C@H](O)CO [mannitol]
in vivo expression of luciferase from p4241 versus controls (ICR mice; 6.25 mg 2 hours prior to iv naked DNA): significantly higher | luciferase expression (ICR mice; 6.25 mg 24 hours prior to p4241): Some increase

Nc1ncnc2[nH]ncc12 [Plasmid 4-APP, 4-Aminopyrazolo(3,4d)-pyrimidine]
luciferase activity versus buffer-pretreated mice (ICR mice; preinjection before iv CLDC (p4241), 24 hours after CLDC): significantly increased luciferase activity

fucoidan
transfection by calcium phosphate (B16 cells, PPC-1 cells): inhibited the transfection | luciferase DNA in nuclei (B16 cells; [2]): no luciferase DNA in their nuclei | luciferase expression of cells (B16 cells; [2]): did not express luciferase | Southern analysis of total DNA from whole cell extracts (B16 cells; pretreated cultured cells): failed to show evidence of any DNA crossing the cell membranes | luciferase activity in lung and heart tissues (ICR female mice; 500 μg per mouse iv, 1 hour before CLDC): drastic reductions in luciferase activity | CLDC mediated transfection of lung cells (ICR female mice; 10 hours post exposure): still inhibits CLDC mediated transfection of lung cells | rhodamine-lipid found in the lung and liver (ICR female mice; one hour pretreatment): significantly decreased levels of rhodamine-lipid | p4241 plasmid in total DNA from lungs and livers (Southern analysis) (ICR female mice; pretreated for 1 hour): decreased levels of p4241 plasmid | magnitude of luciferase depression in tissues (ICR female mice; pretreated for 1 hour in vivo): approximately 100 fold | decrease in p4241 plasmid in nuclear DNA isolated from lungs (ICR female mice; treated versus untreated animals): 3 fold | CLDC transfection in vitro after pretreatment of cells (murine B 16 cells): largely blocked | effect on CLDC-mediated transfection, cells pretreated (murine B 16 cells; 10 nM): little effect
